Earlier results in patent US7456141B2, “Photo resist stripper composition” (Echem Solutions Corp., priority 2004, dated 2008).
Like-named read-outs stand apart in the source and are kept apart here.

Key:
[1] = for Flash Point / Ignition Point / Vaporizing Speed: Table 2; for Steam Pressure: at 20 ° C. (mmHg/° C. [sic])
[2] = Table 3, route and species not given; in mg/kg
[3] = test system: Rat
[4] = test system: Rat; remark: listed apart in the source
[5] = Table 3
[6] = test system: Rat; remark: listed apart in the source
[7] = for TWA: Time Weighted Average, eight hours a day and 40 hours a week; for STEL: Short Time Exposure Limit, 15 minutes
[8] = test system: Mouse
[9] = test system: Rabbit

COCC(C)OC(C)=O (centres unmarked) [PGMEA, Propylene glycol mono-methyl ether acetate]
Flash Point [1]: 42 °C
Ignition Point [1]: 354 °C
Vaporizing Speed [1]: 0.34
Steam Pressure [1]: 3.8/20 mmHg
LD50 [2]: 8532
LD50/Oral/Rat [3]: LD50/Oral/Rat: 8532 mg/kg
LD50/Hypodermic/Rat ([4]; in vivo): LD50/Hypodermic/Rat: 5000 mg/kg
Flash Point [5]: 47 °C
Vaporizing Point [5]: 3.8 °C
Viscosity [5]: 1.1 cst
LC50/Inhale/Rat ([6]; 6 hrs.): LC50/Inhale/Rat: 4345 ppm (6 hrs.)
TWA [7]: 100 ppm

COCC(C)O (centres unmarked) [PGME, propylene glycol mono-methyl ether]
Flash Point [1]: 32 °C
Vaporizing Speed [1]: 0.66
Steam Pressure [1]: 6.7/20 mmHg
LD50 [2]: 6600
LD50/Oral/Rat [3]: LD50/Oral/Rat: 6600 mg/kg
LD50/Hypodermic/Rat ([4]; hypodermic): LD50/Hypodermic/Rat: 13000 mg/kg
Flash Point [5]: 32 °C
Vaporizing Point [5]: 11.8 °C
Viscosity [5]: 1.8 cst
LC50/Inhale/Rat ([6]; 7 hrs.): LC50/Inhale/Rat: 15000 ppm (7 hrs.)
TWA [7]: 100 ppm

CC(=O)CC(C)C [MIBK, Methyl isobutyl ketone]
Flash Point [1]: 18 °C
Ignition Point [1]: 449 °C
Vaporizing Speed [1]: 1.57
Steam Pressure [1]: 16/20 mmHg
LC50/Inhale/Mouse [8]: LC50/Inhale/Mouse: 23300 mg/m^3
LC50/Inhale/Rat ([6]; exposure time not given): LC50/Inhale/Rat: 4000 ppm
STEL [7]: 75 ppm
TWA [7]: 50 ppm
LD50/Hypodermic/Rabbit [9]: LD50/Hypodermic/Rabbit: 20 mg/kg

O=C1CCCCC1 [ANONE, cyclohexanone]
LD50 [2]: 1535
Flash Point [5]: 44 °C
Vaporizing Point [5]: 4 °C
Viscosity [5]: 2.2 cst

CC(=O)OCCC(C)C [IAAc, Isoamyl acetate]
LD50 [2]: 16600
Flash Point [5]: 25 °C
Vaporizing Point [5]: 4 °C

CCCCOC(C)=O [nBAc, n-Butyl Acetate]
Flash Point [1]: 22 °C
Ignition Point [1]: 425 °C
Vaporizing Speed [1]: 0.98
Steam Pressure [1]: 7.8/20 mmHg
LD50 [2]: 13100
Flash Point [5]: 22 °C
Vaporizing Point [5]: 15 °C
Viscosity [5]: 0.7 cst
LC50/Inhale/Rat ([6]; 4 hrs.): LC50/Inhale/Rat: 2000 ppm (4 hrs.)
STEL [7]: 200 ppm
TWA [7]: 150 ppm
